Data published in US20260242419A1, “A CYCLIC PEPTIDE FOR TRAPPING INTERLEUKIN-1 BETA” (Merck Sharp & Dohme LLC, priority 2023, published 2026).
Starred links: 1 amine or outer side, 2 acyl side, 3 side chain; linkers in the order of their positions; H or OH if unused. Non-standard residues stand in square brackets, D forms with d. Residues, ends and D or L forms follow the SMILES beside them. Phe(4-(cis-4-COOH-cHex)) = N[C@@H](Cc1ccc([C@H]2CC[C@@H](C(=O)O)CC2)cc1)C(=O)O; Ala(piperidin-4-yl) = O=C([C@H](CC1CCN([*:3])CC1)N[*:1])[*:2]; Trp(βS-Me,4-F) = C[C@@H](c1c[nH]c2cccc(F)c12)[C@H](N)C(=O)O; Bip(4'-COOH) = N[C@@H](Cc1ccc(-c2ccc(C(=O)O)cc2)cc1)C(=O)O; dPro(4R-Bzl(4-F)) = O=C(O)[C@H]1C[C@@H](Cc2ccc(F)cc2)CN1; Ala(morpholin-4-yl) = N[C@@H](CN1CCOCC1)C(=O)O; Ala(piperazin-1-yl) = N[C@@H](CN1CCNCC1)C(=O)O; Ala(pyrimidin-5-yl) = N[C@@H](Cc1cncnc1)C(=O)O; Phe(4-COOH) = N[C@@H](Cc1ccc(C(=O)O)cc1)C(=O)O; Ala(4-Pyridazinyl) = N[C@@H](Cc1ccnnc1)C(=O)O; Ala(2-pyrazinyl) = N[C@@H](Cc1cnccn1)C(=O)O; Pro(cis-4-F) = O=C(O)[C@@H]1C[C@H](F)CN1; Ala(4-THP) = N[C@@H](CC1CCOCC1)C(=O)O; 4Pal = N[C@@H](Cc1ccncc1)C(=O)O; Dab = NCC[C@H](N)C(=O)O; Aib = CC(C)(N)C(=O)O

biological target: T1, IL-1β (Homo sapiens, UniProt P01584); test: IL-6 assay in MRC5 cells: inhibition of IL-1β induced IL-6 secretion (AlphaLISA); format: cell-based; settings: inhibition of IL-1β induced IL-6 secretion in MRC5 cells; read-out: MRC5 IC50
T1 construct: purchased BioLegend 579404
How it was run: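 Compound was pre-incubated 1 h at ambient temperature with recombinant human IL-1β at 2λ EC80 before adding human lung fibroblast MRC5 cells (3000/well) in EMEM with 0.025% BSA. After overnight culture at 37 °C, 5% CO2, secreted IL-6 in conditioned medium was measured by AlphaLISA; IC50 from 4-parameter logistic fits.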

T1 sequence (P01584 117-269): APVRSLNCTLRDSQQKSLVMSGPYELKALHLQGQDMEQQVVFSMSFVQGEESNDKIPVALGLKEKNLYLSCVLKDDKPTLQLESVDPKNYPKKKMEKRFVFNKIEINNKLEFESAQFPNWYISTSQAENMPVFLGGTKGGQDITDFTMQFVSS

Row | Structure (SMILES) | IC50
1 | C[C@@H](c1c[nH]c2cccc(F)c12)[C@@H]1NC(=O)[C@@H]2C[C@H](F)CN2C(=O)CNC(=O)[C@H](Cc2ccc(C(=O)O)cc2)NC(=O)[C@H](Cc2ccncc2)NC(=O)[C@H](Cc2ccc(-c3ccc(C(=O)O)cc3)cc2)NC(=O)[C@H]2C[C@@H](Cc3ccc(F)cc3)CN2C(=O)CNC(=O)[C@H](CCN)NC(=O)[C@H](CCC(N)=O)NC(=O)[C@H](Cc2ccnnc2)NC(=O)C(C)(C)NC(=O)[C@H](Cc2c[nH]c3ccccc23)NC(=O)[C@H](CCC(=O)O)NC(=O)C(C)(C)NC1=O [Example 115] (cyclo([Bip(4'-COOH)][4Pal][Phe(4-COOH)]G[Pro(cis-4-F)][Trp(βS-Me,4-F)][Aib]EW[Aib][Ala(4-Pyridazinyl)]Q[Dab]G[dPro(4R-Bzl(4-F))])) | 0.023 nM
2 | C[C@@H](c1c[nH]c2cccc(F)c12)[C@@H]1NC(=O)[C@@H]2C[C@H](F)CN2C(=O)CNC(=O)[C@H](Cc2ccc(C(=O)O)cc2)NC(=O)[C@H](Cc2ccnnc2)NC(=O)[C@H](Cc2ccc(-c3ccc(C(=O)O)cc3)cc2)NC(=O)[C@H]2C[C@@H](Cc3ccc(F)cc3)CN2C(=O)CNC(=O)[C@H](CCN)NC(=O)[C@H](CCC(N)=O)NC(=O)[C@H](Cc2cncnc2)NC(=O)C(C)(C)NC(=O)[C@H](Cc2c[nH]c3ccccc23)NC(=O)[C@H](CCC(=O)O)NC(=O)C(C)(C)NC1=O [Example 116] (cyclo([Bip(4'-COOH)][Ala(4-Pyridazinyl)][Phe(4-COOH)]G[Pro(cis-4-F)][Trp(βS-Me,4-F)][Aib]EW[Aib][Ala(pyrimidin-5-yl)]Q[Dab]G[dPro(4R-Bzl(4-F))])) | 0.04 nM
3 | C[C@@H](c1c[nH]c2cccc(F)c12)[C@@H]1NC(=O)[C@@H]2C[C@H](F)CN2C(=O)CNC(=O)[C@H](Cc2ccc(C(=O)O)cc2)NC(=O)[C@H](Cc2ccncc2)NC(=O)[C@H](Cc2ccc([C@H]3CC[C@@H](C(=O)O)CC3)cc2)NC(=O)[C@H]2C[C@@H](Cc3ccc(F)cc3)CN2C(=O)CNC(=O)[C@H](CCN)NC(=O)[C@H](CCC(N)=O)NC(=O)[C@H](Cc2cnccn2)NC(=O)C(C)(C)NC(=O)[C@H](Cc2c[nH]c3ccccc23)NC(=O)[C@H](CCC(=O)O)NC(=O)C(C)(C)NC1=O [Example 117] (cyclo([Phe(4-(cis-4-COOH-cHex))][4Pal][Phe(4-COOH)]G[Pro(cis-4-F)][Trp(βS-Me,4-F)][Aib]EW[Aib][Ala(2-pyrazinyl)]Q[Dab]G[dPro(4R-Bzl(4-F))])) | 0.027 nM
4 | C[C@@H](c1c[nH]c2cccc(F)c12)[C@@H]1NC(=O)[C@@H]2C[C@H](F)CN2C(=O)CNC(=O)[C@H](Cc2ccc(C(=O)O)cc2)NC(=O)[C@H](Cc2ccncc2)NC(=O)[C@H](Cc2ccc(-c3ccc(C(=O)O)cc3)cc2)NC(=O)[C@H]2C[C@@H](Cc3ccc(F)cc3)CN2C(=O)CNC(=O)[C@H](CCN)NC(=O)[C@H](CCC(N)=O)NC(=O)[C@H](CC2CCOCC2)NC(=O)C(C)(C)NC(=O)[C@H](Cc2c[nH]c3ccccc23)NC(=O)[C@H](CCC(=O)O)NC(=O)C(C)(C)NC1=O [Example 118] (cyclo([Bip(4'-COOH)][4Pal][Phe(4-COOH)]G[Pro(cis-4-F)][Trp(βS-Me,4-F)][Aib]EW[Aib][Ala(4-THP)]Q[Dab]G[dPro(4R-Bzl(4-F))])) | 0.016 nM
5 | C[C@@H](c1c[nH]c2cccc(F)c12)[C@@H]1NC(=O)[C@@H]2C[C@H](F)CN2C(=O)CNC(=O)[C@H](Cc2ccc(C(=O)O)cc2)NC(=O)[C@H](Cc2ccncc2)NC(=O)[C@H](Cc2ccc(-c3ccc(C(=O)O)cc3)cc2)NC(=O)[C@H]2C[C@@H](Cc3ccc(F)cc3)CN2C(=O)CNC(=O)[C@H](CCN)NC(=O)[C@H](CCC(N)=O)NC(=O)[C@H](CC2CCNCC2)NC(=O)C(C)(C)NC(=O)[C@H](Cc2c[nH]c3ccccc23)NC(=O)[C@H](CCC(=O)O)NC(=O)C(C)(C)NC1=O [Example 119] (cyclo([Bip(4'-COOH)][4Pal][Phe(4-COOH)]G[Pro(cis-4-F)][Trp(βS-Me,4-F)][Aib]EW[Aib][Ala(piperidin-4-yl)]Q[Dab]G[dPro(4R-Bzl(4-F))])) | 0.016 nM
6 | C[C@@H](c1c[nH]c2cccc(F)c12)[C@@H]1NC(=O)[C@@H]2C[C@H](F)CN2C(=O)CNC(=O)[C@H](Cc2ccc(C(=O)O)cc2)NC(=O)[C@H](Cc2ccncc2)NC(=O)[C@H](Cc2ccc(-c3ccc(C(=O)O)cc3)cc2)NC(=O)[C@H]2C[C@@H](Cc3ccc(F)cc3)CN2C(=O)CNC(=O)[C@H](CCN)NC(=O)[C@H](CCC(N)=O)NC(=O)[C@H](CN2CCNCC2)NC(=O)C(C)(C)NC(=O)[C@H](Cc2c[nH]c3ccccc23)NC(=O)[C@H](CCC(=O)O)NC(=O)C(C)(C)NC1=O [Example 120] (cyclo([Bip(4'-COOH)][4Pal][Phe(4-COOH)]G[Pro(cis-4-F)][Trp(βS-Me,4-F)][Aib]EW[Aib][Ala(piperazin-1-yl)]Q[Dab]G[dPro(4R-Bzl(4-F))])) | 0.014 nM
7 | C[C@@H](c1c[nH]c2cccc(F)c12)[C@@H]1NC(=O)[C@@H]2C[C@H](F)CN2C(=O)CNC(=O)[C@H](Cc2ccc(C(=O)O)cc2)NC(=O)[C@H](Cc2ccncc2)NC(=O)[C@H](Cc2ccc(-c3ccc(C(=O)O)cc3)cc2)NC(=O)[C@H]2C[C@@H](Cc3ccc(F)cc3)CN2C(=O)CNC(=O)[C@H](CO)NC(=O)[C@H](CCC(N)=O)NC(=O)[C@H](CC2CCNCC2)NC(=O)C(C)(C)NC(=O)[C@H](Cc2c[nH]c3ccccc23)NC(=O)[C@H](CCC(=O)O)NC(=O)C(C)(C)NC1=O [Example 121] (cyclo([Bip(4'-COOH)][4Pal][Phe(4-COOH)]G[Pro(cis-4-F)][Trp(βS-Me,4-F)][Aib]EW[Aib][Ala(piperidin-4-yl)]QSG[dPro(4R-Bzl(4-F))])) | 0.029 nM
8 | C[C@@H](c1c[nH]c2cccc(F)c12)[C@@H]1NC(=O)[C@@H]2C[C@H](F)CN2C(=O)CNC(=O)[C@H](Cc2ccc(C(=O)O)cc2)NC(=O)[C@H](Cc2ccncc2)NC(=O)[C@H](Cc2ccc(-c3ccc(C(=O)O)cc3)cc2)NC(=O)[C@H]2C[C@@H](Cc3ccc(F)cc3)CN2C(=O)CNC(=O)[C@H](CO)NC(=O)[C@H](CCC(N)=O)NC(=O)[C@H](CN2CCNCC2)NC(=O)C(C)(C)NC(=O)[C@H](Cc2c[nH]c3ccccc23)NC(=O)[C@H](CCC(=O)O)NC(=O)C(C)(C)NC1=O [Example 122] (cyclo([Bip(4'-COOH)][4Pal][Phe(4-COOH)]G[Pro(cis-4-F)][Trp(βS-Me,4-F)][Aib]EW[Aib][Ala(piperazin-1-yl)]QSG[dPro(4R-Bzl(4-F))])) | 0.019 nM
9 | C[C@@H](c1c[nH]c2cccc(F)c12)[C@@H]1NC(=O)[C@@H]2C[C@H](F)CN2C(=O)CNC(=O)[C@H](Cc2ccc(C(=O)O)cc2)NC(=O)[C@H](Cc2ccncc2)NC(=O)[C@H](Cc2ccc(-c3ccc(C(=O)O)cc3)cc2)NC(=O)[C@H]2C[C@@H](Cc3ccc(F)cc3)CN2C(=O)CNC(=O)[C@H](CO)NC(=O)[C@H](CCC(N)=O)NC(=O)[C@H](CN2CCOCC2)NC(=O)C(C)(C)NC(=O)[C@H](Cc2c[nH]c3ccccc23)NC(=O)[C@H](CCC(=O)O)NC(=O)C(C)(C)NC1=O [Example 125] (cyclo([4Pal][Phe(4-COOH)]G[Pro(cis-4-F)][Trp(βS-Me,4-F)][Aib]EW[Aib][Ala(morpholin-4-yl)]QSG[dPro(4R-Bzl(4-F))][Bip(4'-COOH)])) | 0.041 nM
